What was measured:
[1] = Phase 1 single ascending dose plasma pharmacokinetics of 40-minute IV infusion of R(−)-ketamine and its metabolites; conditions: for Tmax: all dose levels 5 mg to 150 mg; for AUC(0-inf) / Cmax / AUC(0-t): iv
Protocol: This was a Phase 1 randomized, placebo-controlled, double-blind, single dose study conducted at one center. […] The pharmacokinetic (PK) population was 36 subjects, with 12 additional subjects receiving placebo. […] Subjects were male or female healthy subjects, 18 to 65 years of age. […] Cohort 1 was dosed at 5 mg, followed by Cohort 2 at 15 mg, Cohort 3 at 30 mg, Cohort 4 at 60 mg, Cohort 5 at 100 mg, and Cohort 6 at 150 mg R(−)-ketamine. […] In addition to the safety and tolerability data, the study also evaluated the dose-related PK of each 40-minute IV infusion of R(−)-ketamine.
To evaluate the pharmacokinetics of R(−)-ketamine, blood was drawn from subjects for PK analysis at the following sampling times: pre-dose (−30 minutes); and from the start of infusion (5, 10, and 15 minutes [±1 minute], 30 minutes [±5 minutes], 40 minutes [immediately prior to infusion completion], 1, 1.5, 2, and 3 hours [±5 minutes], 4 and 8 hours [±10 minutes], 12 and 24 hours [±15 minutes]).
Plasma PK parameters of R(−)-ketamine and its metabolites (norketamine, 6-hydroxynorketamine, and dehydronorketamine) evaluated on include the following: • Maximum plasma concentration (Cmax), • Time to Cmax (Tmax), • Area under the plasma concentration curve (AUC0-t, AUC0-∞) • Elimination rate constant (λz), • Half-live (t½) • Clearance (CL, P R(−)-ketamine only), • Volume of distribution (Vz, R(−)-ketamine only), and • Metabolite to parent ratios (area under curve [AUC] and Cmax).
The dose proportionality was assessed both visually and statistically using calculated Cmax and AUC values. […] Continuous variables: Descriptive statistics included the number of non-missing values (n), arithmetic mean, standard deviation (SD), median, minimum, and maximum values. […] For PK concentration data, the number of non-missing values, number of below limit of quantification (BLQ) values, arithmetic mean, SD, median, minimum, maximum, coefficient of variation (CV %), geometric mean, and geometric CV (geo CV %) values are presented. For PK parameter data, the number of non-missing values, arithmetic mean, SD, median, minimum, maximum, CV %, geometric mean, and geometric CV (geo CV %) values are presented.
Intravenous administration of allocated blinded study drug (Morning, Day 1) was infused over 40 minutes. Blood collection for plasma PK analysis occurred at infusion 5, 10, 15, 30, 40, 60, and 90 minutes, and 2, 3, 4, 8, and 12 hours after the start of infusion.
Plasma concentrations of R(−)-ketamine and its metabolites norketamine, 6-hydroxynorketamine, and dehydronorketamine were determined using a suitable validated analytical method with a lower limit of quantitation (LOQ) of 1 ng/mL.
The linearity of the increase in exposure with respect to the increasing dose administered was evaluated for Cmax and AUC for R(−)-ketamine and its metabolites (norketamine, 6-hydroxynorketamine and dehydronorketamine). […] The power model was used to estimate the slope parameter and the 90% confidence intervals for the slope.

[2] = tested on: phencyclidine site of the N-methyl-D-aspartate (NMDA) receptor; conditions: phencyclidine site; cited from earlier work
[3] = in vivo; cited from earlier work
TRD patients = conditions: 15 mg; cited from earlier work
rats = experiment: Anhedonic or negative affective side effects
[4] = 5 mg R(−)-ketamine IV over 40 minutes, plasma
[5] = 150 mg R(−)-ketamine IV over 40 minutes, plasma

## NC1(c2ccccc2Cl)CCCC(O)C1=O (stereo not shown) [6-hydroxynorketamine]
[1]; 5 mg R(−)-ketamine IV
  Arithmetic mean AUC0-24h: 110 ng·h/mL
  Arithmetic mean AUC0-t: 110 ng·h/mL
[1]; [4]
  Arithmetic mean Cmax: 5.98 ng/mL
[1]; 150 mg R(−)-ketamine IV
  Arithmetic mean AUC0-24h: 3000 ng·h/mL
  Arithmetic mean AUC0-t: 3000 ng·h/mL
[1]; [5]
  Arithmetic mean Cmax: 165 ng/mL
[1]; across 5 mg to 150 mg cohorts
  Metabolite/R(−)-ketamine ratio based on AUC0-24h, arithmetic mean: 2.22
  Metabolite/R(−)-ketamine ratio based on AUC0-t, arithmetic mean: 2.22

## CN[C@]1(c2ccccc2Cl)CCCCC1=O [S(+)-ketamine, reference compound]
[2]
  Binding affinity relative to R(−)-ketamine: approximately 4 times
[3]
  Side effects (hyperlocomotion, prepulse inhibition deficit, drug dependence): induced side effects such as a hyperlocomotion, prepulse inhibition deficit, and drug dependence
TRD patients
  Antidepressant effect: robust antidepressant effect

## NC1(c2ccccc2Cl)CCC=CC1=O (stereo not shown) [dehydronorketamine]
[1]; 5 mg R(−)-ketamine IV
  Arithmetic mean AUC0-24h: 2.5 ng·h/mL
  Arithmetic mean AUC0-t: 1.37 ng·h/mL
[1]; [4]
  Arithmetic mean Cmax: 0.198 ng/mL
[1]; 15 mg R(−)-ketamine IV
  Arithmetic mean AUC0-inf: 16.3 ng·h/mL
[1]; 15 mg to 150 mg (10-fold increase in dose)
  Fold increase in AUC0-inf: 35.3 fold
[1]; 150 mg R(−)-ketamine IV
  Arithmetic mean AUC0-24h: 424 ng·h/mL
  Arithmetic mean AUC0-inf: 576 ng·h/mL
  Arithmetic mean AUC0-t: 424 ng·h/mL
[1]; [5]
  Arithmetic mean Cmax: 35.6 ng/mL
[1]; PK samples
  Stability in the samples: not stable in the samples

## N[C@@]1(c2ccccc2Cl)CCC[C@@H](O)C1=O [R-hydroxynorketamine]
rats
  Anhedonic or negative affective side effects: no anhedonic or negative affective side effects

## NC1(c2ccccc2Cl)CCCCC1=O (stereo not shown) [norketamine]
[1]; across 5 mg to 150 mg cohorts
  Metabolite/R(−)-ketamine ratio based on Cmax, arithmetic mean: 0.448
[1]; both, human, plasma, intravenous
  half-life: 6.7 to 8.05 h
[1]; both, human, plasma, intravenous, Approximate median plasma Tmax
  Tmax: ~1 h
[1]; both, human, plasma, intravenous, Plasma Tmax range (mixed units as printed)
  Tmax: 0.667 to 2 h
[1]; both, human, plasma, 5 mg
  AUC(0-inf): 79.1 ng·h/mL
  Cmax: 11.4 ng/mL
[1]; both, human, plasma, 5 mg, Arithmetic mean AUC0-24h, 5 mg R(−)-ketamine IV
  AUC(0-t): 79.6 ng·h/mL
[1]; both, human, plasma, 5 mg, Arithmetic mean AUC0-t, 5 mg R(−)-ketamine IV
  AUC(0-t): 78 ng·h/mL
[1]; both, human, plasma, 150 mg
  AUC(0-inf): 3530 ng·h/mL
  Cmax: 360 ng/mL
[1]; both, human, plasma, 150 mg, Arithmetic mean AUC0-24h, 150 mg R(−)-ketamine IV
  AUC(0-t): 3140 ng·h/mL
[1]; both, human, plasma, 150 mg, Arithmetic mean AUC0-t, 150 mg R(−)-ketamine IV
  AUC(0-t): 3140 ng·h/mL

From patent US20260027068A1, “METHODS OF ADM[…]-KETAMINE” (Perception Neuroscience, Inc., priority 2022, published 2026)
